Experimental data as given in US20260184693A1, “INHIBITORS OF SOLUTE CARRIER FAMILY 6A MEMBER 19 (SLC6A19) AND METHODS OF USE THEREOF” (Maze Therapeutics, Inc., priority 2022, published 2026).

Target: T1, human SLC6A19 (Homo sapiens, UniProt Q695T7)
T1 construct: expressed in transfected cells
T1 sequence (Q695T7 1-634): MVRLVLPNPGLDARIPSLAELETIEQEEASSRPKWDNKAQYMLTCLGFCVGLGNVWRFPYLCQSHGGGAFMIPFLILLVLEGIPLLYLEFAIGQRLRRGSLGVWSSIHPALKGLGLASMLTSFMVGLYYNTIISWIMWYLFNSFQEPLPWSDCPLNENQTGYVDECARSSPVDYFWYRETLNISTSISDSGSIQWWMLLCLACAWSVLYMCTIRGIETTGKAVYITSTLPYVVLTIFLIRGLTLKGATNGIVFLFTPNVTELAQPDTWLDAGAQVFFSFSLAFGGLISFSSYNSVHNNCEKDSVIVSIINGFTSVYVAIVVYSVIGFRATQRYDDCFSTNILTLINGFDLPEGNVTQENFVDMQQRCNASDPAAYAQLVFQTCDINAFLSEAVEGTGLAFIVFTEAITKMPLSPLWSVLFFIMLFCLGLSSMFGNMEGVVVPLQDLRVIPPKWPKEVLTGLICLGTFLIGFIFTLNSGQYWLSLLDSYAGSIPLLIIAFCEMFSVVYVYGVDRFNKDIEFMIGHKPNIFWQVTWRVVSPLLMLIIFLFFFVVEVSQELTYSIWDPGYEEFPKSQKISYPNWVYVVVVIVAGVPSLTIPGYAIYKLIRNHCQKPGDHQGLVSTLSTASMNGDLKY
T1 sequence (Q9HBJ8 15-222 partner): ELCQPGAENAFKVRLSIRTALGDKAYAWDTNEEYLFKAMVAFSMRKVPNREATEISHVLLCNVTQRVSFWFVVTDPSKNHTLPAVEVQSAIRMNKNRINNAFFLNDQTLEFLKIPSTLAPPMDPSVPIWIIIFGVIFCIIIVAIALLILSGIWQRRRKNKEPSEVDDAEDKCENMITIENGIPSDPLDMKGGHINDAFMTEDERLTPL
Test: Example B2: 13C6,15N-isoleucine uptake, RapidFire mass spectrometry, in CHO cells with doxycycline-inducible expression of human SLC6A19 and TMEM27
Type: cell-based
Conditions: read-out: SLC6A19_RapidFire Uptake Assay IC50
Outline: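 CHO cells were induced with doxycycline to express human SLC6A19 with TMEM27, then pre-incubated 20 min at 37 °C with compounds (2-fold, 10-point, duplicate). Uptake of 13C6,15N-isoleucine (2 mM solution added) over a further 20 min was measured by RapidFire mass spectrometry, using 13C-leucine as internal standard.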

| SMILES | IC50 [nM] |
| --- | --- |
| CN(C(=O)NCc1cc2cc(Cl)ccc2[nH]1)[C@@H]1CCCN(C(=O)CCn2cccn2)C1 [Compound 91, (R)-1-(1-(3-(1H-pyrazol-1-yl)propanoyl)piperidin-3-yl)-3-((5-chloro-1H-indol-2-yl)methyl)-1-methylurea] | 1810 |
| CC(=O)N1CCC[C@@H](N(C)C(=O)NCc2cc3cc(C#N)ccc3[nH]2)C1 [Compound 228, (R)-1-(1-acetylpiperidin-3-yl)-3-((5-cyano-1H-indol-2-yl)methyl)-1-methylurea] | 2210 |
| CCC(NC(C)=O)C(=O)N1CCC[C@@H](N(C)C(=O)NCc2cc3cc(Cl)ccc3[nH]2)C1 (stereo partly drawn) [Compound 104, N-(1-((R)-3-(3-((5-chloro-1H-indol-2-yl)methyl)-1-methylureido)piperidin-1-yl)-1-oxobutan-2-yl)acetamide] | 6780 |
| CN(C(=O)NCc1cc2cc(Cl)ccc2[nH]1)[C@@H]1CCCN(C(=O)C2CN(S(C)(=O)=O)C2)C1 [Compound 103, (R)-3-((5-chloro-1H-indol-2-yl)methyl)-1-methyl-1-(1-(1-(methylsulfonyl)azetidine-3-carbonyl)piperidin-3-yl)urea] | 2240 |
| CC(=O)N1CCC[C@@H](N(C)C(=O)NCc2cc3ccc(C#N)cc3[nH]2)C1 [Compound 172, (R)-1-(1-acetylpiperidin-3-yl)-3-((6-cyano-1H-indol-2-yl)methyl)-1-methylurea] | 10900 |
| Cc1[nH]cnc1C(=O)N1CCC[C@@H](N(C)C(=O)NCc2cc3cc(Cl)ccc3[nH]2)C1 [Compound 58, (R)-3-((5-chloro-1H-indol-2-yl)methyl)-1-methyl-1-(1-(5-methyl-1H-imidazole-4-carbonyl)piperidin-3-yl)urea] | 4050 |
| Cc1cnc2ncc(C(=O)N3CCC[C@@H](N(C)C(=O)NCc4cc5cc(Cl)ccc5[nH]4)C3)n2c1 [Compound 102, (R)-3-((5-chloro-1H-indol-2-yl)methyl)-1-methyl-1-(1-(6-methylimidazo[1,2-a]pyrimidine-3-carbonyl)piperidin-3-yl)urea] | 1800 |
| CN(C(=O)NCc1cc2cc(Cl)ccc2[nH]1)[C@@H]1CCCN(C(=O)Cn2ccccc2=O)C1 [Compound 81, (R)-3-((5-chloro-1H-indol-2-yl)methyl)-1-methyl-1-(1-(2-(2-oxopyridin-1(2H)-yl)acetyl)piperidin-3-yl)urea] | 1410 |
| CN(C(=O)NCc1cc2cc(Cl)ccc2[nH]1)[C@@H]1CCCN(C(=O)Cn2nccn2)C1 [Compound 30, (R)-1-(1-(2-(2H-1,2,3-triazol-2-yl)acetyl)piperidin-3-yl)-3-((5-chloro-1H-indol-2-yl)methyl)-1-methylurea] | 3700 |
| CN(C(=O)NCc1cc2cc(Cl)ccc2[nH]1)[C@@H]1CCCN(C(=O)C2(O)CCC2)C1 [Compound 128, (R)-3-((5-chloro-1H-indol-2-yl)methyl)-1-(1-(1-hydroxycyclobutane-1-carbonyl)piperidin-3-yl)-1-methylurea] | 1820 |
| CN(C(=O)NCc1cc2cc(Cl)ccc2[nH]1)[C@@H]1CCCN(C(=O)CS(C)(=O)=O)C1 [Compound 32, (R)-3-((5-chloro-1H-indol-2-yl)methyl)-1-methyl-1-(1-(2-(methylsulfonyl)acetyl)piperidin-3-yl)urea] | 8610 |
| CC(C(=O)N1CCC[C@@H](N(C)C(=O)NCc2cc3cc(Cl)ccc3[nH]2)C1)C1(O)CCC1 (stereo partly drawn) [Compound 105, 3-((5-chloro-1H-indol-2-yl)methyl)-1-((3R)-1-(2-(1-hydroxycyclobutyl)propanoyl)piperidin-3-yl)-1-methylurea] | > 27000 |
| CN1CCC[C@@H](N(C)C(=O)NCc2cc3cc(Cl)ccc3[nH]2)C1 [Compound 149, (R)-3-((5-chloro-1H-indol-2-yl)methyl)-1-methyl-1-(1-methylpiperidin-3-yl)urea] | 10100 |
| CN(C(=O)NCc1cc2cc(Cl)ccc2[nH]1)[C@@H]1CCCN(C(=O)c2ncc(F)cn2)C1 [Compound 24, (R)-3-((5-chloro-1H-indol-2-yl)methyl)-1-(1-(5-fluoropyrimidine-2-carbonyl)piperidin-3-yl)-1-methylurea] | 4200 |

These reach a lower IC50. Values come first.

| IC50 [nM] | SMILES |
| --- | --- |
| 1350 | CN(C(=O)NCc1cc2cc(Cl)ccc2[nH]1)[C@@H]1CCCN(C(=O)Cc2cnccn2)C1 [Compound 62, (R)-3-((5-chloro-1H-indol-2-yl)methyl)-1-methyl-1-(1-(2-(pyrazin-2-yl)acetyl)piperidin-3-yl)urea] |
| 1060 | CC(=O)N1CCC[C@@H](N(C)C(=O)NCc2cc3cc(Cl)cc(O)c3[nH]2)C1 [Compound 231, (R)-1-(1-acetylpiperidin-3-yl)-3-((5-chloro-7-hydroxy-1H-indol-2-yl)methyl)-1-methylurea] |
| 933 | CC(=O)N1CC(C(=O)N2CCC[C@@H](N(C)C(=O)NCc3cc4cc(Cl)ccc4[nH]3)C2)C1 [Compound 96, (R)-1-(1-(1-acetylazetidine-3-carbonyl)piperidin-3-yl)-3-((5-chloro-1H-indol-2-yl)methyl)-1-methylurea] |
| 909 | CN(C(=O)NCc1cc2ccccc2[nH]1)C1CCCN(c2cccnn2)C1 (stereo not shown) [Compound 145, 3-((1H-indol-2-yl)methyl)-1-methyl-1-(1-(pyridazin-3-yl)piperidin-3-yl)urea] |
| 852 | C[C@H](O)C(=O)N1CCC[C@@H](N(C)C(=O)NCc2cc3cc(Cl)ccc3[nH]2)C1 [Compound 183, 3-((5-chloro-1H-indol-2-yl)methyl)-1-((R)-1-((S)-2-hydroxypropanoyl)piperidin-3-yl)-1-methylurea] |
| 620 | CN(C(=O)NCc1cc2cc(Cl)ccc2[nH]1)[C@@H]1CCCN(C(=O)CO)C1 [Compound 4, (R)-3-((5-chloro-1H-indol-2-yl)methyl)-1-(1-(2-hydroxyacetyl)piperidin-3-yl)-1-methylurea] |
| 537 | CCOc1cc2[nH]c(CNC(=O)N(C)[C@@H]3CCCN(C(C)=O)C3)cc2cc1Cl [Compound 155, (R)-1-(1-acetylpiperidin-3-yl)-3-((5-chloro-6-ethoxy-1H-indol-2-yl)methyl)-1-methylurea] |
| 493 | CC(=O)N1CCC[C@@H](N(C)C(=O)NCc2cc3cc(F)ccc3[nH]2)C1 [Compound 161, (R)-1-(1-acetylpiperidin-3-yl)-3-((5-fluoro-1H-indol-2-yl)methyl)-1-methylurea] |
| 491 | CN(C(=O)NCc1cc2cc(Cl)ccc2[nH]1)[C@@H]1CCCN(C(=O)CC(F)(F)F)C1 [Compound 8, (R)-3-((5-chloro-1H-indol-2-yl)methyl)-1-methyl-1-(1-(3,3,3-trifluoropropanoyl)piperidin-3-yl)urea] |
| 405 | CC(C)C(=O)N1CCC[C@@H](N(C)C(=O)NCc2cc3cc(Cl)ccc3[nH]2)C1 [Compound 33, (R)-3-((5-chloro-1H-indol-2-yl)methyl)-1-(1-isobutyrylpiperidin-3-yl)-1-methylurea] |
| 371 | CN(C(=O)NCc1cc2cc(Cl)ccc2[nH]1)[C@@H]1CCCN(C(=O)CC2CC2)C1 [Compound 49, (R)-3-((5-chloro-1H-indol-2-yl)methyl)-1-(1-(2-cyclopropylacetyl)piperidin-3-yl)-1-methylurea] |
| 314 | CN(C(=O)NCc1cc2cc(Cl)ccc2[nH]1)[C@@H]1CCCN(C(=O)N2CCC2)C1 [Compound 173, (R)-1-(1-(azetidine-1-carbonyl)piperidin-3-yl)-3-((5-chloro-1H-indol-2-yl)methyl)-1-methylurea] |
| 282 | CC(=O)N1CCC[C@@H](N(C)C(=O)NCc2cc3cc(F)c(F)cc3[nH]2)C1 [Compound 156, (R)-1-(1-acetylpiperidin-3-yl)-3-((5,6-difluoro-1H-indol-2-yl)methyl)-1-methylurea] |
| 252 | CN(C(=O)NCc1cc2cc(Cl)ccc2[nH]1)[C@@H]1CCCN(C(=O)C2COC2)C1 [Compound 1, (R)-3-((5-chloro-1H-indol-2-yl)methyl)-1-methyl-1-(1-(oxetane-3-carbonyl)piperidin-3-yl)urea] |
| 173 | CC(=O)N1CCC[C@@H](N(C)C(=O)NCc2cc3cc(Cl)c(Cl)cc3[nH]2)C1 [Compound 154, (R)-1-(1-acetylpiperidin-3-yl)-3-((5,6-dichloro-1H-indol-2-yl)methyl)-1-methylurea] |
| 168 | CCN(C(=O)NCc1cc2cc(F)ccc2[nH]1)[C@@H]1CCCN(C(C)=O)C1 [Compound 166, (R)-1-(1-acetylpiperidin-3-yl)-1-ethyl-3-((5-fluoro-1H-indol-2-yl)methyl)urea] |
| 45.1 | CCN(C(=O)NCc1cc2cc(Cl)c(F)cc2[nH]1)[C@@H]1CCCN(C(C)=O)C1 [Compound 170, (R)-1-(1-acetylpiperidin-3-yl)-3-((5-chloro-6-fluoro-1H-indol-2-yl)methyl)-1-ethylurea] |
